# According to patent publication US20250275993A1, “GLYCOSYLATION INHIBITORS AS THERAPEUTICS FOR STROKE” (The Regents of the University of California, priority 2022, published 2025):
# Tests used:
# [1] = test system: BCEC confluent monolayers; test: BCEC scratch assay; assay type: cell-based, bovine; conditions: 40 μM ManN or 50 ng/ml of VEGF; after 48 hours
# Experimental: BCECs (passage 6-10) and HUVEC (passage 6-8) were used in this assay. Cells were grown until about 80% confluency in 6-well plates, washed twice with PBS and then starved in serum-free DMEM (low Glucose, Hyclone) for 5 hrs before making a “scratch” using 1 ml tip. Cell monolayers were briefly washed once with serum-free media, followed by various treatments in media containing 1% FBS. 48 hrs later, the assay was stopped by adding 2 ml 4% paraformaldehyde. 20 min later, fixed cells were stained with 1 ml Crystal Violet (Sigma). Plates were washed gently under the running tap water and air-dried before taking pictures. Images were acquired by ZEISS Discovery […] microscopy equipped with […] camera. Quantification of wound closure was done using AxioVision LE Rel.4.4 software. Six images were taken for each sample and six measurements (in pixel) were made on each image using AxioVision LE Re1.4.4 software.
# [2] = test system: VEGFR2; test: VEGFR2 western blot in BCECs (molecular mass, phosphorylation, PNGase F); assay type: cell-based, bovine; conditions: VEGF at 5 ng/ml for 24 hours
# Experimental: Glycerol-free PNGase F was obtained from New England Biolabs (Ipswich, MA). Briefly, BCECs were lysed with NP-40 containing proteinase inhibitors (Thermo Scientific, Waltham, MA). Lysates were cleared at 4° C. at 5000 g for 25 mins. Total protein content was measured using Pierce BCA protein assay kit (Thermo Scientific). 20 mg of protein was mixed with 10× denaturing buffer and H2O to a total volume of […]. Glycoproteins were denatured at 100° C. for 10 mins, followed by adding Glycobuffer and PNGase F. The reaction was carried out at 37° C. for 2 hr.
# Cells were allowed to reach-80% confluency in 12-well plates. […] At various time points, plates were taken out of the incubator and kept on ice. […] Lysates were collected and mixed with 4× Bolt LDS Sample Buffer (Novex, Carlsbad, CA) in the presence of Halt protease inhibitors and phosphatase inhibitor cocktail (ThermoFisher scientific, #NP0007). […] HUVECs (passage 6-8) were plated in EBM-2 basal medium (Lonza) with 0.2% FBS. Following overnight culture, cells were serum-starved in EBM-2 medium for 4 hrs prior to treatment with 50 ng/ml of VEGF165 or vehicle controls for various lengths. Equal amounts of protein lysates were analyzed by SDS-PAGE and blotted with the indicated antibodies. Proteins were transferred using Tris-Glycine buffer with 20% Methanol (Proteonomics grade) (Apex BioResearch Products). Membranes were first incubated with 5% milk in TBST, pH 7.6 (TEKnova, Hollister, CA), followed by blotting with primary and secondary antibodies. ECL anti-rabbit IgG, horseradish peroxidase linked whole antibody from donkey or sheep anti-mouse were obtained from GE Healthcare (UK limited). SuperSignal West Dura Extended Duration substrate was from ThermoFisher Scientific. In some cases, the same PVDF membranes were stripped by 8-min incubation in the Restore Plus Western Blot Stripping Buffer (ThermoFisher Scientific) to show total specific protein expression, followed by second stripping for (3-actin expression.
# [3] = test system: skin wound; test: Skin wound healing model (splinted wound); assay type: in vivo, mouse; conditions: topical 20 μg daily; mice; PBS group 81.5%
# Excerpt: The model has been previously described. Briefly, C57BL/6 female mice (8-10 weeks old) were obtained from Jackson labs (Sacramento, CA). A fresh, full-thickness punch wound (4 mm diameter) using a punch (Acu Punch, Acuderm inc. Ft. Lauderdale, FL) splinted with a sterile neoprene ring (6-mm outer diameter and 4-mm inner diameter), fastened with 5-6 sutures (4-0 nylon) under the influence of Isoflurane was created on the back of the animal in a Class II Biological Safety Cabinet. For all surgical procedures, sterile technique was followed. Buprenorphine was given subcutaneously prior to awakening from anesthesia for anticipated pain. Mice were monitored until fully awake and were housed individually to minimize damage/biting/fighting to the surgical site. […] Treatment agents were prepared in PBS, sterile-filtered and 25 μl solution was applied daily directly to a wound bed for the first 4-5 days under the influence of Isoflurane, followed by daily observation. Wound closure was monitored by regular imaging and the wound area was quantified using ImageJ (National Institutes of Health, Bethesda, MD, USA). […] Epithelial gap was measured histomorphometrically using AxioVision LE Rel.4.4 software. […] Small vessels stained positive for CD31 were counted microscopically on 10 fields (20×) taken around the wound.
substance,measurement,setting,value
VEGF,closure of the scratched area vs control,[1],significantly accelerated BCEC migration and/or proliferation
same,effect of VEGF alone on VEGFR2 molecular mass,[2],no effect on molecular mass
same,average closure of the wound on day 4,[3],66.9%
